{"source": "paper PMC12238723", "about": "“Phase I Clinical Trial of CVL218, a Novel PARP1/2 Inhibitor, in Patients with Advanced Solid Tumors” (MedComm, 2025)", "key": {"[1]": {"set-up": "method as in PMID 36283983", "settings": "cited from earlier work"}, "[2]": {"test": "Plasma PK after multiple oral doses (Cycle 1 Day 28)", "format": "in vivo, patients", "description": "The period during which patients received a single dose is designated as cycle 0 (C0), lasting 72 h. After this period, patients begin multiple dosing, referred to as cycle 1 (C1). An initial accelerated titration design was employed for the three lowest dose groups, and the “3+3” design was applied starting with the 300 mg BID cohort. […] Single-dose and multiple-dose PK parameters included C max, T max, elimination half-life (T 1/2), AUC0- t , AUC0-inf, oral clearance (CL/F), and apparent volume of distribution (V z/F) for CVL218. Tumor response was assessed per RECIST 1.1. ORR was defined as proportion of patients with a CR or PR on at least one visit, while DCR was defined as proportion of patients with a CR or PR or SD. PFS was defined as the time from the first dose of either drug to investigator assessed radiologic PD or to death of any cause. PFS would be censored at the time of last tumor assessment. Subjects who received at least one dose of CVL218 with postadministration safety records were included in safety analysis set. Subjects who received at least one dose of CVL218 with at least one evaluable PK parameter were included in PK analysis set. Per-protocol set were used for efficacy analysis. Descriptive statistics of safety were presented per CTCAE v5.0. The PK parameters T max and T 1/2 were shown as the median (min, max) and mean ± SD, respectively. A two-sided p < 0.05 was considered to indicate statistical significance. Statistical analysis was performed by using GraphPad prism 8.0.2 and R-4.3.3."}, "[3]": {"settings": "multiple doses C1D28, 50mg BID, n 1"}, "[4]": {"settings": "multiple doses C1D28, 100mg BID, n 1"}, "[5]": {"settings": "multiple doses C1D28, 200mg BID, n 1"}, "[6]": {"settings": "multiple doses C1D28, 350mg BID, n 4"}, "[7]": {"settings": "multiple doses C1D28, 500mg BID, n 4"}, "[8]": {"settings": "multiple doses C1D28, 600mg BID, n 4"}, "[9]": {"settings": "multiple doses C1D28, 700mg BID, n 6"}, "[10]": {"settings": "multiple doses C1D28, 850mg BID, n 5"}}}
{"smiles": "CNCc1ccc(-c2cc3cc(F)cc(C(N)=O)c3o2)cc1.Cl", "note": "[CVL218]", "values": [{"measurement": "blood–brain barrier crossing", "setting": "[1]", "value": "readily crosses the blood–brain barrier"}, {"measurement": "AUC0-24, Geometric Mean", "setting": "[2]; [3]", "value": 70.9, "unit": "ng·h/mL"}, {"measurement": "AUC0-t, Geometric Mean", "setting": "[2]; [3]", "value": 77.9, "unit": "ng·h/mL"}, {"measurement": "AUC_TAU, Mean", "setting": "[2]; [3]", "value": 70.9, "unit": "ng·h/mL"}, {"measurement": "Cavgss, Mean", "setting": "[2]; [3]", "value": 5.91, "unit": "ng/mL"}, {"measurement": "Cl/F, Geometric Mean", "setting": "[2]; [3]", "value": 705000.0, "unit": "mL/h"}, {"measurement": "Cmax, Geometric Mean", "setting": "[2]; [3]", "value": 15.6, "unit": "ng/mL"}, {"measurement": "Cminss, Mean", "setting": "[2]; [3]", "value": 0, "unit": "ng/mL"}, {"measurement": "Vz/F, Geometric Mean", "setting": "[2]; [3]", "value": 6870000.0, "unit": "mL"}, {"measurement": "AUC0-24, Geometric Mean", "setting": "[2]; [4]", "value": 822.0, "unit": "ng·h/mL"}, {"measurement": "AUC0-t, Geometric Mean", "setting": "[2]; [4]", "value": 1930.0, "unit": "ng·h/mL"}, {"measurement": "AUC_TAU, Mean", "setting": "[2]; [4]", "value": 822, "unit": "ng·h/mL"}, {"measurement": "Cavgss, Mean", "setting": "[2]; [4]", "value": 68.5, "unit": "ng/mL"}, {"measurement": "Cl/F, Geometric Mean", "setting": "[2]; [4]", "value": 122000.0, "unit": "mL/h"}, {"measurement": "Cmax, Geometric Mean", "setting": "[2]; [4]", "value": 148.0, "unit": "ng/mL"}, {"measurement": "Cminss, Mean", "setting": "[2]; [4]", "value": 38, "unit": "ng/mL"}, {"measurement": "Vz/F, Geometric Mean", "setting": "[2]; [4]", "value": 1750000.0, "unit": "mL"}, {"measurement": "AUC0-24, Geometric Mean", "setting": "[2]; [5]", "value": 808.0, "unit": "ng·h/mL"}, {"measurement": "AUC0-t, Geometric Mean", "setting": "[2]; [5]", "value": 1360.0, "unit": "ng·h/mL"}, {"measurement": "AUC_TAU, Mean", "setting": "[2]; [5]", "value": 808, "unit": "ng·h/mL"}, {"measurement": "Cavgss, Mean", "setting": "[2]; [5]", "value": 67.3, "unit": "ng/mL"}, {"measurement": "Cl/F, Geometric Mean", "setting": "[2]; [5]", "value": 248000.0, "unit": "mL/h"}, {"measurement": "Cmax, Geometric Mean", "setting": "[2]; [5]", "value": 156.0, "unit": "ng/mL"}, {"measurement": "Cminss, Mean", "setting": "[2]; [5]", "value": 28.6, "unit": "ng/mL"}, {"measurement": "Vz/F, Geometric Mean", "setting": "[2]; [5]", "value": 4780000.0, "unit": "mL"}, {"measurement": "AUC0-24, Geometric Mean", "setting": "[2]; [6]", "value": 2230.0, "unit": "ng·h/mL"}, {"measurement": "AUC0-inf, Geometric Mean", "setting": "[2]; [6]", "value": 5860.0, "unit": "ng·h/mL"}, {"measurement": "AUC0-t, Geometric Mean", "setting": "[2]; [6]", "value": 4750.0, "unit": "ng·h/mL"}, {"measurement": "AUC_TAU, Mean", "setting": "[2]; [6]", "value": 2170, "unit": "ng·h/mL"}, {"measurement": "Cavgss, Mean", "setting": "[2]; [6]", "value": 181, "unit": "ng/mL"}, {"measurement": "Cl/F, Geometric Mean", "setting": "[2]; [6]", "value": 157000.0, "unit": "mL/h"}, {"measurement": "Cmax, Geometric Mean", "setting": "[2]; [6]", "value": 313.0, "unit": "ng/mL"}, {"measurement": "Cminss, Mean", "setting": "[2]; [6]", "value": 72.2, "unit": "ng/mL"}, {"measurement": "T1/2, Mean", "setting": "[2]; [6]", "value": 5.4, "unit": "h"}, {"measurement": "Vz/F, Geometric Mean", "setting": "[2]; [6]", "value": 1400000.0, "unit": "mL"}, {"measurement": "AUC0-24, Geometric Mean", "setting": "[2]; [7]", "value": 3210.0, "unit": "ng·h/mL"}, {"measurement": "AUC0-inf, Geometric Mean", "setting": "[2]; [7]", "value": 6920.0, "unit": "ng·h/mL"}, {"measurement": "AUC0-t, Geometric Mean", "setting": "[2]; [7]", "value": 6830.0, "unit": "ng·h/mL"}, {"measurement": "AUC_TAU, Mean", "setting": "[2]; [7]", "value": 3870, "unit": "ng·h/mL"}, {"measurement": "Cavgss, Mean", "setting": "[2]; [7]", "value": 323, "unit": "ng/mL"}, {"measurement": "Cl/F, Geometric Mean", "setting": "[2]; [7]", "value": 158500.0, "unit": "mL/h"}, {"measurement": "Cmax, Geometric Mean", "setting": "[2]; [7]", "value": 562.5, "unit": "ng/mL"}, {"measurement": "Cminss, Mean", "setting": "[2]; [7]", "value": 177, "unit": "ng/mL"}, {"measurement": "T1/2, Mean", "setting": "[2]; [7]", "value": 4.1, "unit": "h"}, {"measurement": "Vz/F, Geometric Mean", "setting": "[2]; [7]", "value": 1380000.0, "unit": "mL"}, {"measurement": "AUC0-24, Geometric Mean", "setting": "[2]; [8]", "value": 1880.0, "unit": "ng·h/mL"}, {"measurement": "AUC0-inf, Geometric Mean", "setting": "[2]; [8]", "value": 7700.0, "unit": "ng·h/mL"}, {"measurement": "AUC0-t, Geometric Mean", "setting": "[2]; [8]", "value": 2560.0, "unit": "ng·h/mL"}, {"measurement": "AUC_TAU, Mean", "setting": "[2]; [8]", "value": 2810, "unit": "ng·h/mL"}, {"measurement": "Cavgss, Mean", "setting": "[2]; [8]", "value": 234, "unit": "ng/mL"}, {"measurement": "Cl/F, Geometric Mean", "setting": "[2]; [8]", "value": 318000.0, "unit": "mL/h"}, {"measurement": "Cmax, Geometric Mean", "setting": "[2]; [8]", "value": 311.0, "unit": "ng/mL"}, {"measurement": "Cminss, Mean", "setting": "[2]; [8]", "value": 118, "unit": "ng/mL"}, {"measurement": "T1/2, Mean", "setting": "[2]; [8]", "value": 5.1, "unit": "h"}, {"measurement": "Vz/F, Geometric Mean", "setting": "[2]; [8]", "value": 2440000.0, "unit": "mL"}, {"measurement": "AUC0-24, Geometric Mean", "setting": "[2]; [9]", "value": 3830.0, "unit": "ng·h/mL"}, {"measurement": "AUC0-inf, Geometric Mean", "setting": "[2]; [9]", "value": 4170.0, "unit": "ng·h/mL"}, {"measurement": "AUC0-t, Geometric Mean", "setting": "[2]; [9]", "value": 3830.0, "unit": "ng·h/mL"}, {"measurement": "AUC_TAU, Mean", "setting": "[2]; [9]", "value": 4450, "unit": "ng·h/mL"}, {"measurement": "Cavgss, Mean", "setting": "[2]; [9]", "value": 371, "unit": "ng/mL"}, {"measurement": "Cl/F, Geometric Mean", "setting": "[2]; [9]", "value": 183000.0, "unit": "mL/h"}, {"measurement": "Cmax, Geometric Mean", "setting": "[2]; [9]", "value": 660.0, "unit": "ng/mL"}, {"measurement": "Cminss, Mean", "setting": "[2]; [9]", "value": 127, "unit": "ng/mL"}, {"measurement": "T1/2, Mean", "setting": "[2]; [9]", "value": 3.9, "unit": "h"}, {"measurement": "Vz/F, Geometric Mean", "setting": "[2]; [9]", "value": 1090000.0, "unit": "mL"}, {"measurement": "AUC0-24, Geometric Mean", "setting": "[2]; [10]", "value": 5150.0, "unit": "ng·h/mL"}, {"measurement": "AUC0-inf, Geometric Mean", "setting": "[2]; [10]", "value": 2940.0, "unit": "ng·h/mL"}, {"measurement": "AUC0-t, Geometric Mean", "setting": "[2]; [10]", "value": 5150.0, "unit": "ng·h/mL"}, {"measurement": "AUC_TAU, Mean", "setting": "[2]; [10]", "value": 5150, "unit": "ng·h/mL"}, {"measurement": "Cavgss, Mean", "setting": "[2]; [10]", "value": 429, "unit": "ng/mL"}, {"measurement": "Cl/F, Geometric Mean", "setting": "[2]; [10]", "value": 230000.0, "unit": "mL/h"}, {"measurement": "Cmax, Geometric Mean", "setting": "[2]; [10]", "value": 776.0, "unit": "ng/mL"}, {"measurement": "Cminss, Mean", "setting": "[2]; [10]", "value": 194, "unit": "ng/mL"}, {"measurement": "T1/2, Mean", "setting": "[2]; [10]", "value": 4.4, "unit": "h"}, {"measurement": "Vz/F, Geometric Mean", "setting": "[2]; [10]", "value": 1532500.0, "unit": "mL"}, {"measurement": "median Tmax", "setting": "[2]; multiple doses, range over cohorts", "value": "1 to 3", "unit": "h"}, {"measurement": "mean half-life", "setting": "[2]; multiple oral doses, range over cohorts", "value": "3.9 to 5.4", "unit": "h"}, {"measurement": "median Tmax", "setting": "[2]; recommended dose of 700 mg BID", "value": 2, "unit": "h"}]}
